The text below walks through data of ChEMBL document CHEMBL1201862, “PubChem BioAssay data set” (2004).

Test systems include CAKI-1; DU-145; HCC 2998; IGROV-1; LOX IMVI; MCF7; MDA-MB-231; MDA-N; MOLT-4; PC-3; RPMI-8226; RXF 393; SF-295; SK-MEL-28; SK-OV-3; SW-620; T47D; U-251; UACC-257; UACC-62.
Assay in all cases: growth of human tumour cells (NCI), 48 h

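Five concentrations, 48 hours, 96-well plates. GI50 = concentration required for 50% inhibition of growth.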 The source made the active and inactive calls. Cut-off read from the data, not from the text of the source: active = GI50 up to about 1.1 µM and inactive = higher.

Consider `CCCCCCCCCCCCOC1C(COCCN2CCCCC2)OC2OC(C)(C)OC21` (stereo not given), for which the GI50 in the experiment on CAKI-1 was 1.73 µM (inactive); with DU-145, 10 µM (inactive); with HCC 2998 it was 1.64 µM (inactive); in the experiment with IGROV-1, 1.83 µM (inactive); in the experiment on LOX IMVI, 1.55 µM (inactive); in the experiment with MCF7, 1.73 µM (inactive). Further, the GI50 was 1.91 µM (inactive) in the experiment on MDA-MB-231; 1.53 µM (inactive) in the experiment on MDA-N; 1.53 µM (inactive) with MOLT-4; 1.75 µM (inactive) in the experiment with PC-3; 1.52 µM (inactive) with RPMI-8226; 1.7 µM (inactive) in the experiment with RXF 393. Moreover, the GI50 is 1.69 µM (inactive) in the experiment on SF-295; 1.82 µM (inactive) in the experiment on SK-MEL-28; 4.08 µM (inactive) in the experiment with SK-OV-3; 1.77 µM (inactive) in the experiment with SW-620; 1.94 µM (inactive) with T47D; 2.02 µM (inactive) with U-251. Also, the GI50 in the experiment on UACC-257 is 1.74 µM (inactive); in the experiment on UACC-62, 1.84 µM (inactive).

With `C=C(C)C(=O)OC1CC2(C)OC(=CC2=O)C(C)CC2OC(=O)C(=C)C12` (stereo not given), the GI50 in the experiment with CAKI-1 was 2.7 µM (inactive); with DU-145, 4.74 µM (inactive); in the experiment on HCC 2998, 10.3 µM (inactive); with IGROV-1 it was 8.85 µM (inactive); with LOX IMVI, 2.94 µM (inactive); in the experiment with MCF7 it was 2.78 µM (inactive). The GI50 is 13.5 µM (inactive) in the experiment on MDA-MB-231; 3.01 µM (inactive) in the experiment on MDA-N; 2.9 µM (inactive) with MOLT-4; 14 µM (inactive) with PC-3; 3.3 µM (inactive) in the experiment with RPMI-8226; 1.19 µM (inactive) in the experiment with RXF 393. For the same compound, the GI50 is 19 µM (inactive) in the experiment on SF-295; 4.2 µM (inactive) with SK-MEL-28; 34.9 µM (inactive) with SK-OV-3; 2.79 µM (inactive) in the experiment with SW-620; 4.57 µM (inactive) in the experiment with T47D; 16.5 µM (inactive) with U-251. The GI50 was 12.3 µM (inactive) in the experiment on UACC-257 and 10.8 µM (inactive) with UACC-62.

As for `COC(=O)[C@]1(C)CCC[C@@]2(C)[C@@H]3C[C@@H]4[C@H]5C[C@@]3(CC[C@@H]21)C[C@@]45C`, the GI50 in the experiment on CAKI-1 was 16.4 µM (inactive); in the experiment on DU-145, 25.8 µM (inactive); in the experiment with HCC 2998, 17.3 µM (inactive); with IGROV-1, 19.3 µM (inactive); in the experiment with LOX IMVI, 19.7 µM (inactive); in the experiment with MCF7, 14.9 µM (inactive). Moreover, the GI50 in the experiment with MDA-MB-231 was 15.6 µM (inactive); in the experiment on MDA-N, 17.9 µM (inactive); in the experiment with MOLT-4, 14.5 µM (inactive); in the experiment with PC-3, 15.2 µM (inactive); with RPMI-8226, 10.3 µM (inactive); with RXF 393 it was 17.1 µM (inactive). The GI50 in the experiment with SF-295 is 15.2 µM (inactive); in the experiment with SK-MEL-28, 17.5 µM (inactive); with SK-OV-3, 14.7 µM (inactive); in the experiment on SW-620, 24.3 µM (inactive); with T47D it was 23.2 µM (inactive); in the experiment with U-251, 24 µM (inactive). In addition, the GI50 in the experiment on UACC-257 is 15.4 µM (inactive); in the experiment on UACC-62, 14.8 µM (inactive).

As for `O=C1OCC2OC(=O)c3cc(O)c(O)c(O)c3-c3c(O)c(O)c(O)c4c3C(=O)OC(C2OC(=O)c2cc(O)c(O)c(O)c2-c2c1cc(O)c(O)c2O)C1OC(=O)c2c-4c(O)c(O)c(O)c2[C@@H]1C(O)C(O)C(O)C(O)CO` (stereo not given in full), the GI50 with CAKI-1 was 13.6 µM (inactive); in the experiment with DU-145, 20.2 µM (inactive); in the experiment on HCC 2998 it was 21.6 µM (inactive); in the experiment on IGROV-1, 20 µM (inactive); with LOX IMVI, 2.25 µM (inactive); with MCF7, 3.82 µM (inactive). The GI50 was 12.7 µM (inactive) with MDA-MB-231; 7.11 µM (inactive) in the experiment on MDA-N; 20.4 µM (inactive) in the experiment with MOLT-4; 20.7 µM (inactive) in the experiment on PC-3; 29 µM (inactive) in the experiment with RPMI-8226; 19.3 µM (inactive) in the experiment on RXF 393. The GI50 in the experiment with SF-295 was 20.1 µM (inactive); in the experiment with SK-MEL-28, 49.1 µM (inactive); with SK-OV-3, 27.4 µM (inactive); with SW-620, 19.5 µM (inactive); with T47D it was 19.1 µM (inactive); with U-251 it was 20.4 µM (inactive). In addition, the values for the GI50 in the experiment on UACC-257 and with UACC-62 were 19.4 µM (inactive) and 17.8 µM (inactive), respectively.

Regarding `COc1ccc2c(c1)OC(c1cccnc1)C(c1ccccc1)C2=O` (stereo not given), the GI50 in the experiment with CAKI-1, in the experiment with DU-145, in the experiment with HCC 2998, in the experiment on IGROV-1, in the experiment on LOX IMVI and in the experiment on MCF7 was > 100 µM (inactive) in each case. Further, the GI50 with MDA-MB-231, in the experiment on MDA-N, in the experiment with MOLT-4, in the experiment with PC-3, in the experiment with RPMI-8226 and with RXF 393 was > 100 µM (inactive) in each case. In addition, the GI50 in the experiment on SF-295 was 46.5 µM (inactive); in the experiment on SK-MEL-28, > 100 µM (inactive); with SK-OV-3, 59.4 µM (inactive); with SW-620 it was > 100 µM (inactive); in the experiment with T47D, > 100 µM (inactive); with U-251 it was 43.8 µM (inactive). Also, the GI50 in the experiment with UACC-257 and in the experiment with UACC-62 was > 100 µM (inactive) throughout.

As for `C/C(=N\N=C(/S)N(C)C)c1cccc[n+]1[O-]`, the GI50 in the experiment on CAKI-1 was 32.4 µM (inactive); in the experiment with DU-145, 59 µM (inactive); in the experiment with HCC 2998 it was 19.9 µM (inactive); in the experiment with IGROV-1 it was 45.3 µM (inactive); in the experiment with LOX IMVI it was 20.5 µM (inactive); in the experiment with MCF7 it was 8.05 µM (inactive). In addition, the GI50 with MDA-MB-231 is 2.99 µM (inactive); in the experiment on MDA-N, 95.1 µM (inactive); in the experiment with MOLT-4 it was 0.914 µM (active); with PC-3, 15.4 µM (inactive); in the experiment with RPMI-8226 it was 3.62 µM (inactive); in the experiment with RXF 393, 65.3 µM (inactive). Also, the GI50 was 39.6 µM (inactive) in the experiment with SF-295; 73.5 µM (inactive) with SK-MEL-28; 70.5 µM (inactive) in the experiment with SK-OV-3; 22.3 µM (inactive) in the experiment with SW-620; 0.413 µM (active) in the experiment with T47D; 44.3 µM (inactive) in the experiment with U-251. In addition, the GI50 in the experiment on UACC-257 was 4.38 µM (inactive); with UACC-62, 16.1 µM (inactive).

On to `CC(=O)OCC1OC(N2C(=O)/C(=C\c3ccc(Cl)cc3)C(N)=Nc3ccccc32)C(OC(C)=O)C(OC(C)=O)C1OC(C)=O` (stereo not given), for which the GI50 with CAKI-1 is 37.3 µM (inactive); in the experiment with DU-145 it was 28.8 µM (inactive); in the experiment on HCC 2998, 16.1 µM (inactive); with IGROV-1, 19.6 µM (inactive); in the experiment with LOX IMVI it was 17.1 µM (inactive); in the experiment with MCF7, 11.8 µM (inactive). For the same compound, the GI50 in the experiment on MDA-MB-231 is 19.3 µM (inactive); with MDA-N, 17.6 µM (inactive); with MOLT-4, 6.43 µM (inactive); in the experiment with PC-3, 20.6 µM (inactive); with RPMI-8226, 2.24 µM (inactive); with RXF 393, 4.34 µM (inactive). Moreover, the GI50 was 38.8 µM (inactive) in the experiment on SF-295; 26.1 µM (inactive) with SK-MEL-28; 51.1 µM (inactive) in the experiment on SK-OV-3; 23.2 µM (inactive) in the experiment on SW-620; 12.4 µM (inactive) in the experiment with T47D; 14.6 µM (inactive) in the experiment with U-251. Besides, the GI50 in the experiment with UACC-257 was 23.4 µM (inactive); with UACC-62 it was 29.4 µM (inactive).

On to `On1c(-c2ccccc2)nc2ccccc2c1=S`, for which the GI50 is 5.48 µM (inactive) in the experiment on CAKI-1; 7.64 µM (inactive) in the experiment with DU-145; 2.4 µM (inactive) in the experiment with HCC 2998; 0.493 µM (active) with IGROV-1; 0.632 µM (active) in the experiment with LOX IMVI; 6.9 µM (inactive) with MCF7. Also, the GI50 in the experiment on MDA-MB-231 was 70.3 µM (inactive); in the experiment with MDA-N, 18.9 µM (inactive); with MOLT-4, 2.04 µM (inactive); in the experiment with PC-3 it was 3.61 µM (inactive); in the experiment on RPMI-8226 it was 3.27 µM (inactive); in the experiment on RXF 393, 25.5 µM (inactive). Also, the GI50 was 2.7 µM (inactive) in the experiment on SF-295; 7.41 µM (inactive) in the experiment with SK-MEL-28; 6.92 µM (inactive) in the experiment on SK-OV-3; 6.82 µM (inactive) in the experiment on SW-620; 3.37 µM (inactive) in the experiment on T47D; 4.95 µM (inactive) in the experiment with U-251. The GI50 is 54.3 µM (inactive) in the experiment on UACC-257 and 3.7 µM (inactive) in the experiment on UACC-62.

On to `OCCN1CCN(c2nc(N3CCCC3)c3nc(Cl)c(NCc4ccccc4)nc3n2)CC1`, for which the GI50 with CAKI-1 was 9.44 µM (inactive); in the experiment on DU-145, 8.15 µM (inactive); with HCC 2998 it was 1.93 µM (inactive); with IGROV-1 it was 8.43 µM (inactive); in the experiment on LOX IMVI, 5.4 µM (inactive); in the experiment on MCF7, 4.31 µM (inactive). The GI50 is 9.82 µM (inactive) with MDA-MB-231; 3.7 µM (inactive) in the experiment with MDA-N; 3.19 µM (inactive) with MOLT-4; 9.27 µM (inactive) with PC-3; 2.83 µM (inactive) with RPMI-8226; 1.32 µM (inactive) in the experiment on RXF 393. Further, the GI50 is 5.53 µM (inactive) in the experiment on SF-295; 4.09 µM (inactive) in the experiment with SK-MEL-28; 13.7 µM (inactive) with SK-OV-3; 3.78 µM (inactive) in the experiment on SW-620; 5.32 µM (inactive) in the experiment on T47D; 5.65 µM (inactive) in the experiment on U-251. In addition, the GI50 is 5.15 µM (inactive) with UACC-257 and 4.65 µM (inactive) in the experiment with UACC-62.

For `CCOc1cccc(-c2cc(O)c3cc4c(cc3n2)OCO4)c1`, the GI50 in the experiment on CAKI-1 was 0.2 µM (active); in the experiment with DU-145, 0.335 µM (active); in the experiment with HCC 2998, 0.239 µM (active); with IGROV-1, 0.548 µM (active); in the experiment on LOX IMVI it was 0.233 µM (active); in the experiment on MCF7 it was 0.673 µM (active). The GI50 in the experiment on MDA-MB-231 is 0.243 µM (active); with MDA-N it was 0.0214 µM (active); in the experiment on MOLT-4 it was 0.296 µM (active); in the experiment with PC-3 it was 0.112 µM (active); with RPMI-8226, 0.318 µM (active); in the experiment on RXF 393 it was 0.0953 µM (active). For the same compound, the GI50 is 0.0735 µM (active) with SF-295; 1.66 µM (inactive) with SK-MEL-28; 0.166 µM (active) with SK-OV-3; 0.0573 µM (active) with SW-620; 54.7 µM (inactive) with T47D; 0.0619 µM (active) in the experiment on U-251. The GI50 was 1.95 µM (inactive) in the experiment on UACC-257 and 0.043 µM (active) in the experiment with UACC-62.
